Test results: patent US8415342B2, “Besifloxacin ophthalmic composition for the treatment or control of infection” (Bausch & Lomb Incorporated, priority 2008, dated 2013)
pIC50: −log10 of the molar value.

Target: S. pneumoniae DNA gyrase (Streptococcus pneumoniae serotype 4, UniProt P0A4L9+P72524)
Assay: Catalytic inhibition of purified DNA gyrase
Format: biochemical

S. pneumoniae DNA gyrase, sequence (P72524 whole entry): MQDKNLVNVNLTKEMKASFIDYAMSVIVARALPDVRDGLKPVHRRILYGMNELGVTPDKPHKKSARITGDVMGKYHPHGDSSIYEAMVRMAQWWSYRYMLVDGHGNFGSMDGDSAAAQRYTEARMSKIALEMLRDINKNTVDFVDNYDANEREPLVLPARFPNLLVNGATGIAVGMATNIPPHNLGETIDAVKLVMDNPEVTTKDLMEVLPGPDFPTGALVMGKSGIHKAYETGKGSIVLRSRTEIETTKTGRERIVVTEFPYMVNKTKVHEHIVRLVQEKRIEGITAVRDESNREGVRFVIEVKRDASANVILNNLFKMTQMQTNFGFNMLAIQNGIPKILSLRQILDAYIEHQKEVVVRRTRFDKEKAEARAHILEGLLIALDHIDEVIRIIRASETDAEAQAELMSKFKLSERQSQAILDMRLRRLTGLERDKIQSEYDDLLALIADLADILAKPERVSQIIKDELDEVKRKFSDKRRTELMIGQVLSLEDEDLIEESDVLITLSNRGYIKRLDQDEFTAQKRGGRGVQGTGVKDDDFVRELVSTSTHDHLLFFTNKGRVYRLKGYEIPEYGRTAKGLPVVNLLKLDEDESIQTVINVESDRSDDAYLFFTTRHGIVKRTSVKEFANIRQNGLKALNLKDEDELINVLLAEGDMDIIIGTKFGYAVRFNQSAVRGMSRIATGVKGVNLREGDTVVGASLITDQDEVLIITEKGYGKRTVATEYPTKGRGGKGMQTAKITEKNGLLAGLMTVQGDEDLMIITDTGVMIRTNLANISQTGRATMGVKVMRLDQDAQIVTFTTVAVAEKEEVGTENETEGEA
S. pneumoniae DNA gyrase, sequence (P0A4L9 whole entry): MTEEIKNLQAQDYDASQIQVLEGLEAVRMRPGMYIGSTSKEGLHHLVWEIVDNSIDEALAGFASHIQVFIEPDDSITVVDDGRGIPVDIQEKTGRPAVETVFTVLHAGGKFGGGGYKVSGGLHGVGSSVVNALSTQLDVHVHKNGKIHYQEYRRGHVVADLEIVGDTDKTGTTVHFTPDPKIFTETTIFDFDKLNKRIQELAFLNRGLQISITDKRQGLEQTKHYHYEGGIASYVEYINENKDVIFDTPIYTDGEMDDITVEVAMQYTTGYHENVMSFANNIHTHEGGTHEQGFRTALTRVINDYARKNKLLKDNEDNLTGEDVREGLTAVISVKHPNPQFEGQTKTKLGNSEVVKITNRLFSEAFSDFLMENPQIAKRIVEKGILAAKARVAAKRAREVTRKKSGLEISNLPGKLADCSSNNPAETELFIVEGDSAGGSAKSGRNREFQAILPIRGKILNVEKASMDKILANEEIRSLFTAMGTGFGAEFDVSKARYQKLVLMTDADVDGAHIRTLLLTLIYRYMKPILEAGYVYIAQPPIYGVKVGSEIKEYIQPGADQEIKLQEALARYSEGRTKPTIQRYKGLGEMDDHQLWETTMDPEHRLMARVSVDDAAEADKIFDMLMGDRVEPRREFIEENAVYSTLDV

N[C@@H]1CCCCN(c2c(F)cc3c(=O)c(C(=O)O)cn(C4CC4)c3c2Cl)C1 [Besifloxacin, (R)-(+)-(3-amino-2,3,4,5,6,7-hexahydro-1H-azepin-1-yl)-8-chloro-1-cyclopropyl-6-fluoro-1,4,-dihydro-4-oxo-3-quinolinecarboxylic acid]
potency relative to ciprofloxacin and moxifloxacin (catalytic inhibition and cleavable complex stimulation) (S. pneumoniae DNA gyrase): 4- to 16 fold | pIC50 (S. pneumoniae enzymes): 5.60 | difference between inhibitory concentrations for DNA gyrase and topoisomerase IV (S. pneumoniae enzymes): 2.5 fold
